Results: patent publication US20230390268A1 (priority 2022, published 2023)
Entries after “also recorded” stand apart in the source; their conditions may differ. Like-named read-outs stand apart in the source and are kept apart here.

Assays:
SARS-CoV-2 [1] = type: cell-based
IL6 = IL6 transcript levels by qPCR in SARS-CoV-2 infected Calu3 cells; type: cell-based, human; conditions: Calu3 cells infected with SARS-CoV-2
TNFα = TNFα transcript levels by qPCR in SARS-CoV-2 infected Calu3 cells; type: cell-based, human; conditions: Calu3 cells infected with SARS-CoV-2
IL8 = IL8 transcript levels by qPCR in SARS-CoV-2 infected Calu3 cells; type: cell-based, human; conditions: Calu3 cells infected with SARS-CoV-2
[2] = tested on: Vesicular stomatitis virus (VSV); type: cell-based
[3] = tested on: Herpes Simplex Virus (HSV); type: cell-based
Vaccinia virus (VacV) = type: cell-based
HIV-1 NL4-3 GFP = type: cell-based
ASK1/p38MAPK = type: cell-based, human
Calu3 cells = type: cell-based, human; conditions: 1 MOI of VSV, Selonsertib 50 μM, 24 hr
JNK = type: cell-based, human
mTORC1 = type: cell-based, human; conditions: Calu3 and THF cells infected with VSV, Selonsertib 50 μM, 24 hr, versus DMSO+VSV
autophagy = type: cell-based, human; conditions: Calu3 and THF cells infected with VSV, Selonsertib 50 μM, 24 hr
SARS-CoV-2 [4] = type: cell-based; remark: listed apart in the source
VSV [5] = type: cell-based
SARS-CoV-2 [6] = type: cell-based; remark: listed apart in the source
SARS-CoV-2/SB3 = tested on: SARS-CoV-2/SB3; set-up: species or system Syrian Hamster; conditions: in vivo
VSV [7] = type: cell-based; remark: listed apart in the source
HSV = experiment: HSV-GFP replication in CHL-11 hamster cell line; type: cell-based; conditions: CHL-11 cells, HSV-GFP MOI of 1, 0.1 or 0.01, Selonsertib 25 or 50 μM, 24 h
THF cells = experiment: Cell viability MTT assay; conditions: 50 μM, 24 hr, compared with DMSO

## Cc1cc(F)c(C(=O)Nc2cccc(-c3nncn3C(C)C)n2)cc1-n1cnc(C2CC2)c1 [Selonsertib]
SARS-CoV-2 [1]
  SARS-CoV-2 replication: drastically reduces
IL6
  levels of IL6: diminish
TNFα
  levels of TNFα: diminish
IL8
  levels of IL8: diminish
[2]
  GFP-intensity of VSV: significantly abolish
  VSV replication: gradually decreased
  duration of effect on viral replication after aspirating drugs: 24 h
  time after adding drug at which VSV replication starts to weaken: 2 h
[3]
  GFP-intensity of HSV: significantly abolish
Vaccinia virus (VacV)
  GFP-intensity of VacV: significantly abolish
HIV-1 NL4-3 GFP
  HIV-1-GFP replication: abrogates replication
ASK1/p38MAPK
  duration of effect on phosphorylation of ASK1/p38MAPK after aspirating drugs: 24 h
  time after adding drug at which p38MAPK phosphorylation starts to weaken: 2 h
Calu3 cells
  changes in cell morphology caused by VSV replication: remarkably alleviates; also recorded: relieved
JNK
  JNK phosphorylation: reduced
mTORC1
  Phosphorylation levels of p70 (S6K1): not changed
autophagy
  autophagy marker, LC3II: not affected
SARS-CoV-2 [4]
  SARS-CoV-2 nucleoprotein in infected HAP1 KO cells treated or not: no significant difference
VSV [5]
  VSV infection in HAP1 KO cells: still able to swipe the leftover of VSV infection
SARS-CoV-2 [6]
  level of SARS-CoV2 nucleocapsid: remarkably increased
SARS-CoV-2/SB3; hamster
  percentage of weight loss: the most
SARS-CoV-2/SB3
  IHC staining against SARS-CoV2 nucleocapsid in the hamster lung tissue: dominated a spatial area of the lung tissue
  SARS-CoV-2 replication in hamster tissue: augmented
VSV [7]
  antiviral effect against VSV in hamster cell line: antiviral properties
HSV
  antiviral effect against HSV in hamster cell line: antiviral properties
THF cells
  cell viability: healthy and safe; also recorded: no difference

## O=C(Nc1cccc(-c2nncn2C2CC2)c1)c1cc(-n2cnc(C3CC3)c2)ccn1 [GS-444217]
SARS-CoV-2 [1]
  SARS-CoV-2 replication: drastically reduces
IL6
  levels of IL6: diminish
TNFα
  levels of TNFα: diminish
IL8
  levels of IL8: diminish
[2]
  GFP-intensity of VSV: significantly abolish
  duration of effect on viral replication after aspirating drugs: 24 h
[3]
  GFP-intensity of HSV: significantly abolish
Vaccinia virus (VacV)
  GFP-intensity of VacV: significantly abolish
HIV-1 NL4-3 GFP
  HIV-1-GFP replication: abrogates replication
ASK1/p38MAPK; pretreatment 24 hours, drugs aspirated prior VSV infection, Calu3 cells
  duration of effect on phosphorylation of ASK1/p38MAPK after aspirating drugs: 24 h
THF cells
  cell viability: healthy and safe; also recorded: no difference

## Cc1ccc(-n2nc(C(C)(C)C)cc2NC(=O)Nc2ccc(OCCN3CCOCC3)c3ccccc23)cc1 [BIRB, Doramapimod]
SARS-CoV-2 [1]
  SARS-CoV-2 replication: no antiviral properties
IL6
  levels of IL6: diminish
TNFα
  levels of TNFα: diminish
IL8
  levels of IL8: diminish
[2]
  VSV replication: no obvious effect; also recorded: no noticeable effect
